# Assay results published in patent US7235518B2, “Fabric care compositions comprising hueing dye” (The Procter & Gamble Company, priority 2004, dated 2007).
# Columns and labels:
# [1] = Water solubility of brightener; type: physicochemical
# Text: Brighteners should have some water solubility for easy incorporation into the fabric conditioning composition. […] Fluorescent whitening agents, generally due to their low water solubility, are difficult to incorporate into liquid fabric conditioning compositions. Often it is advantageous to post-add brighteners to a finished base product. One convenient way to do this is to make a brighteners premix.
# [2] = Chemical stability of brightener in acidic product matrix; type: physicochemical; conditions: biodegradable fabric conditioning compositions, pH from about 3 to about 4
compound,measurement,setting,value
"O=S(=O)(O)c1ccccc1C=Cc1ccc(-c2ccc(C=Cc3ccccc3S(=O)(=O)O)cc2)cc1.[Na].[Na] [Tinopal CBS-X, Disodium 4,4′-bis-(2-sulfostyryl) biphenyl]",water solubility,[1]; 25 C,2.5%
same,water solubility,[1]; 25° C.,about 2.5 weight percent
same,chemical stability in the acidic product matrix,[2],better than some other brighteners
